Experiment: ESI positive response factor (isotope-corrected peak area per molar concentration) in SFC/ESI/HRMS (area units per M); higher = higher ionization efficiency
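Also: standards in acetonitrile/water run in triplicate on a zwitterionic HILIC column, CO2–methanol gradient containing 20 mmol/L ammonium acetate, postcolumn makeup flow, Orbitrap full-scan detection.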

| Compound | ESI positive response factor (0.875 µM) | ESI positive response factor (1.75 µM) | ESI positive response factor (0.0122 µM) | ESI positive response factor (0.0244 µM) | ESI positive response factor (0.061 µM) | ESI positive response factor (0.122 µM) | ESI positive response factor (0.244 µM) | ESI positive response factor (0.175 µM) | ESI positive response factor (0.0175 µM) | ESI positive response factor (0.035 µM) | ESI positive response factor (0.0875 µM) | ESI positive response factor (0.35 µM) |
| --- | --- | --- | --- | --- | --- | --- | --- | --- | --- | --- | --- | --- |
| COc1ccc(C(=O)c2ccccc2)c(O)c1 [Oxybenzone] |  |  |  |  |  |  |  |  | 1.73e+17 | 1.88e+17 | 1.67e+17 |  |
| COC=C(C(=O)OC)c1ccccc1COc1cccc(C(F)(F)F)n1 [Picoxystrobin] |  |  |  |  |  |  |  | 2.25e+17 | 2.81e+17 | 2.82e+17 | 2.61e+17 | 2.47e+17 |
| CC(C)C[C@H](CN)CC(=O)O [Pregabalin] | 1.58e+16 | 1.57e+16 |  |  |  |  |  | 1.55e+16 |  |  | 1.96e+16 | 1.8e+16 |
| COC(=O)N(OC)c1ccccc1COc1ccn(-c2ccc(Cl)cc2)n1 [Pyraclostrobin] |  |  |  |  |  |  |  | 4.73e+17 | 6.62e+17 | 5.71e+17 | 5.45e+17 | 5.43e+17 |
| Fc1ccc(Oc2ccnc3cc(Cl)cc(Cl)c23)cc1 [Quinoxyfen] |  |  |  |  |  |  |  | 9.43e+17 | 9.87e+17 | 1.08e+18 | 9.74e+17 |  |
| O=C(O)C(c1ccccc1)C1CCCCN1 (stereo unspecified) [Ritalinic acid] | 1.17e+17 | 1.26e+17 |  |  |  |  |  | 1.12e+17 |  | 1.26e+17 | 1.24e+17 | 1.31e+17 |
| CC(C)NCC(O)c1ccc(NS(C)(=O)=O)cc1 (stereo unspecified) [Sotalol] |  |  |  |  |  |  |  |  | 2.28e+17 | 2.68e+17 | 2.59e+17 |  |
| CC(CCl)OP(=O)(OC(C)CCl)OC(C)CCl (stereo unspecified) [TCPP] |  |  |  |  |  |  |  | 8.34e+17 | 1.59e+18 | 1.21e+18 | 1.02e+18 | 7.91e+17 |
| O=P(OC(CCl)CCl)(OC(CCl)CCl)OC(CCl)CCl [TDCPP] |  |  |  |  |  |  |  |  | 4.09e+17 | 4.02e+17 | 3.57e+17 |  |
| C[C@]12CC[C@H]3[C@@H](CCC4=CC(=O)CC[C@@]43C)[C@@H]1CC[C@@H]2O [Testosteron] |  |  |  |  |  |  |  |  | 2.27e+17 | 2.44e+17 | 2.22e+17 |  |
| OCCN(CCO)CCO [Triethanolamine] |  |  |  |  |  |  |  | 8.76e+16 | 8.84e+16 | 8.88e+16 | 8.78e+16 | 8.66e+16 |
| O=P(OCCCl)(OCCCl)OCCCl [Tris(2-chloroethyl) phosphate] |  |  |  |  |  |  |  |  | 2.68e+18 | 2.89e+18 | 2.72e+18 |  |
| CC(O)CN(CC(C)O)CC(C)O (stereo unspecified) [triisopropanolamine] |  |  |  |  |  |  |  | 3.36e+17 |  | 1.75e+17 | 2.93e+17 | 3.51e+17 |

The next lines start with results.

| ESI positive response factor (0.875 µM) | ESI positive response factor (1.75 µM) | ESI positive response factor (0.0122 µM) | ESI positive response factor (0.0244 µM) | ESI positive response factor (0.061 µM) | ESI positive response factor (0.122 µM) | ESI positive response factor (0.244 µM) | ESI positive response factor (0.175 µM) | Compound | ESI positive response factor (0.0175 µM) | ESI positive response factor (0.035 µM) | ESI positive response factor (0.0875 µM) | ESI positive response factor (0.35 µM) |
| --- | --- | --- | --- | --- | --- | --- | --- | --- | --- | --- | --- | --- |
| 5.5e+14 | 4.78e+14 |  |  |  |  |  |  | O=c1nc2[nH][nH]cc-2c(=O)[nH]1 [Oxypurinol] |  |  |  |  |
|  |  | 5.93e+16 | 6.23e+16 | 6.32e+16 | 6.16e+16 | 6.31e+16 |  | CC(C)(CO)[C@@H](O)C(=O)NCCCO [Panthenol] |  |  |  |  |
|  |  |  |  |  |  |  | 3.21e+17 | NC(N)=NC(N)=NCCc1ccccc1 [Phenformin] | 2.9e+17 | 3.42e+17 | 3.34e+17 | 3.4e+17 |
|  |  |  |  |  |  |  | 5.09e+17 | NC(=O)C1(N2CCCCC2)CCN(CCCC(=O)c2ccc(F)cc2)CC1 [Pipamperone] | 4.81e+17 | 5.01e+17 | 5.44e+17 |  |
|  |  |  |  |  |  |  | 9.69e+16 | CCC1(c2ccccc2)C(=O)NCNC1=O [Primidone] | 8.94e+16 | 1.09e+17 | 1.15e+17 | 1.08e+17 |
| 3.41e+15 | 3.53e+15 |  |  |  |  |  | 2.66e+15 | Cc1cc2nc3c(=O)[nH]c(=O)nc-3n(CC(O)C(O)C(O)CO)c2cc1C (stereo unspecified) [Riboflavin] |  |  |  | 3.31e+15 |
| 6.01e+16 |  |  |  |  |  |  | 5.79e+16 | NCC1CCC(C(=O)O)CC1 (stereo unspecified) [Tranexamic acid] |  | 9.61e+16 | 6.97e+16 | 6.32e+16 |
|  |  |  |  |  |  |  | 7.97e+16 | COCCOCCOCCO [Triethylene glycol monomethyl ether] | 8.19e+16 | 9.98e+16 | 8.29e+16 |  |
| 3.33e+17 |  |  |  |  |  |  | 3.13e+17 | COc1cc(Cc2cnc(N)nc2N)cc(OC)c1OC [Trimethoprim] | 2.88e+17 | 3.52e+17 | 3.58e+17 | 3.46e+17 |
| 6.04e+16 | 5.94e+16 |  |  |  |  |  | 5.75e+16 | CCCCC(=O)N(Cc1ccc(-c2ccccc2-c2nn[nH]n2)cc1)C(C(=O)O)C(C)C (stereo unspecified) [Valsartan] | 2.86e+16 | 5.36e+16 | 5.55e+16 | 6.09e+16 |
| 6.01e+16 |  |  |  |  |  |  | 5.79e+16 | C=CC(=O)OCC[N+](C)(C)C [[2-(Acryloyloxy)ethyl]trimethylammonium] |  | 8.46e+16 | 6.97e+16 | 6.32e+16 |

— the supplement of paper PMC10326909
